Consider 20 molecules from patent US20080306056A1, “PYRAZOLE-DERIVATIVES AS FACTOR Xa INHIBITORS” (SANOFI-AVENTIS DEUTSCHLAND GMBH, priority 2002, published 2008).

Usually Ki stands for the dissociation constant of the complex between target and ligand, obtained from inhibition or displacement.

This assay deals with T1, human factor Xa (Homo sapiens, UniProt P00742).
T1 construct: 25 μl human factor Xa (Enzyme Research Laboratories, Inc; South Bend, Ind.); purchased Enzyme Research Laboratories, Inc; South Bend, Ind
T1 sequence (P00742 235-488 limits assumed): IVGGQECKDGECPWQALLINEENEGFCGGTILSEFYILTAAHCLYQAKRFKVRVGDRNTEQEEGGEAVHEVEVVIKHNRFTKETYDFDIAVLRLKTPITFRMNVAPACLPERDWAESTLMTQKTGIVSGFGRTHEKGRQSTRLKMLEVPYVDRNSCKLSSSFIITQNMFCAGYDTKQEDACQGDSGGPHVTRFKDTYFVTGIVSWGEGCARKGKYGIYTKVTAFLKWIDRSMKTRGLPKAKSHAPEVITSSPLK
T1 sequence (P00742 41-179 partner limits assumed): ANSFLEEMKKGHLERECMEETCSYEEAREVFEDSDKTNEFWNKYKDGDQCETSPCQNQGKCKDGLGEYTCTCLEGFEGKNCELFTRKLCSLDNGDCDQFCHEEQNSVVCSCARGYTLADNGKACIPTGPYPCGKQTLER
The assay is described as follows: Factor Xa assay (chromogenic, purified enzyme). It is filed as biochemical. The following applies: inhibition constant for factor Xa; chromogenic substrate S-2765 140 μM, enzyme 0.5 nM, 25° C., pH 7.8; Ki=IC50/{1+(substrate concentration/Km)}; read-out: Ki(FXa). From the text:
The ability of the compound of formulae I, Ib and Ic to inhibit factor Xa or factor VIIa or other enzymes like thrombin, plasmin, or trypsin can be assessed by determining the concentration of the compound of the formulae I, Ib and Ic that inhibits enzyme activity by 50%, i.e. the IC50 value, which was related to the inhibition constant Ki. Purified enzymes were used in chromogenic assays. The concentration of inhibitor that causes a 50% decrease in the rate of substrate hydrolysis was determined by linear regression after plotting the relative rates of hydrolysis (compared to the uninhibited control) versus the log of the concentration of the compound of formulae I, Ib and Ic. For calculating the inhibition constant Ki, the IC50 value was corrected for competition with substrate using the formula wherein Km is the Michaelis-Menten constant (Chen and Prusoff, Biochem.
Ki=IC50/{1+(substrate concentration/Km)}
Pharmacol. 22 (1973) 3099-3108; I. H. Segal, Enzyme Kinetics, 1975, John Wiley & Sons, New York, 100-125; which were incorporated herein by reference).
The IC50 was determined by combining in appropriate wells of a Costar half-area microtiter plate 25 μl human factor Xa (Enzyme Research Laboratories, Inc.; South Bend, Ind.) in TBS-PEG; 40 μl 10% (v/v) DMSO in TBS-PEG (uninhibited control) or various concentrations of the compound to be tested diluted in 10% (v/v) DMSO in TBS-PEG; and substrate S-2765 (N(α)-benzyloxycarbonyl-D-Arg-Gly-L-Arg-p-nitroanilide; Kabi Pharmacia, Inc.; Franklin, Ohio) in TBS-PEG.
The assay was performed by pre-incubating the compound of formulae I, Ib and Ic plus enzyme for 10 min. Then the assay was initiated by adding substrate to obtain a final volume of 100 μl. The initial velocity of chromogenic substrate hydrolysis was measured by the change in absorbance at 405 nm using a Bio-tek Instruments kinetic plate reader (Ceres UV900HDi) at 25° C. during the linear portion of the time course (usually 1.5 min after addition of substrate). The enzyme concentration was 0.5 nM and substrate concentration was 140 μM.
The inhibitory activity towards factor VIIa/tissue factor activity was determined using a chromogenic assay essentially as described previously (J. A. Ostrem et al., Biochemistry 37 (1998) 1053-1059 which was incorporated herein by reference). Kinetic assays were conducted at 25° C. in half-area microtiter plates (Costar Corp., Cambridge, Mass.) using a kinetic plate reader (Molecular Devices Spectramax 250). A typical assay consisted of 25 μl human factor VIIa and TF (5 nM and 10 nM, respective final concentration) combined with 40 μl of inhibitor dilutions in 10% DMSO/TBS-PEG buffer (50 mM Tris, 15 mM NaCl, 5 mM CaCl2, 0.05% PEG 8000, pH 8.15). Following a 15 minute preincubation period, the assay was initiated by the addition of 35 μl of the chromogenic substrate S-2288 (D-Ile-Pro-Arg-p-nitroanilide, Pharmacia Hepar Inc., 500 μM final concentration).
As to `CNC(=O)c1cc(C(=O)NC2CCN(C(C)C)CC2)n(Cc2cc(-c3ccc(Cl)s3)on2)n1` [Example 26, 1-[5-(5-Chloro-thiophen-2-yl)-isoxazol-3-ylmethyl]-1H-pyrazole-3,5-dicarboxylic acid 5-[(1-isopropyl-piperidin-4-yl)-amide] 3-methylamide], the Ki came out at 68 nM.
The result for `CC(C)N1CCC(NC(=O)c2cc(C(=O)NCCO)nn2Cc2cc(-c3ccc(Cl)s3)on2)CC1` [Example 27, 1-[5-(5-Chloro-thiophen-2-yl)-isoxazol-3-ylmethyl]-1H-pyrazole-3,5-dicarboxylic acid 3-[(2-hydroxy-ethyl)-amide] 5-[(1-isopropyl-piperidin-4-yl)-amide]] reads 88 nM.
The result for `CC(C)N1CCC(NC(=O)c2cc(C(=O)NCC(=O)O)nn2Cc2cc(-c3ccc(Cl)s3)on2)CC1` [Example 28, {[1-[5-(5-Chloro-thiophen-2-yl)-isoxazol-3-ylmethyl]-5-(1-isopropyl-piperidin-4-ylcarbamoyl)-1H-pyrazole-3-carbonyl]-amino}-acetic acid] reads 82 nM; that for `CC(C)N1CCC(NC(=O)c2cc(-c3n[nH]c(=O)o3)nn2Cc2cc(-c3ccc(Cl)s3)on2)CC1` [Example 29, 2-[5-(5-Chloro-thiophen-2-yl)-isoxazol-3-ylmethyl]-5-(5-oxo-4,5-dihydro-[1,3,4]oxadiazol-2-yl)-2H-pyrazole-3-carboxylic acid (1-isopropyl-piperidin-4-yl)-amide], 155 nM; that for `CC(C)N1CCC(NC(=O)c2cc(C(=O)N3CCN(CCO)CC3)nn2Cc2cc(-c3ccc(Cl)s3)on2)CC1` [Example 30, 2-[5-(5-Chloro-thiophen-2-yl)-isoxazol-3-ylmethyl]-5-[4-(2-hydroxy-ethyl)-piperazine-1-carbonyl]-2H-pyrazole-3-carboxylic acid (1-isopropyl-piperidin-4-yl)-amide], 262 nM.
For the molecule `COCCN(CCOC)C(=O)c1cc(C(=O)NC2CCN(C(C)C)CC2)n(Cc2cc(-c3ccc(Cl)s3)on2)n1` [Example 31, 1-[5-(5-Chloro-thiophen-2-yl)-isoxazol-3-ylmethyl]-1H-pyrazole-3,5-dicarboxylic acid 3-[bis-(2-methoxy-ethyl)-amide] 5-[(1-isopropyl-piperidin-4-yl)-amide]], the inhibitory constant (Ki) turned out to be 180 nM.
As for `CC(C)N1CCC(NC(=O)c2cc(C(=O)OCCN3CCNC3=O)nn2Cc2cc(-c3ccc(Cl)s3)on2)CC1` [Example 32, 1-[5-(5-Chloro-thiophen-2-yl)-isoxazol-3-ylmethyl]-5-(1-isopropyl-piperidin-4-ylcarbamoyl)-1H-pyrazole-3-carboxylic acid 2-(2-oxo-imidazolidin-1-yl)-ethyl ester], the Ki was 45 nM.
Turning to `CC(C)N1CCC(NC(=O)c2cc(C(=O)N(C)CC(=O)O)nn2Cc2cc(-c3ccc(Cl)s3)on2)CC1` [Example 33, {[1-[5-(5-Chloro-thiophen-2-yl)-isoxazol-3-ylmethyl]-5-(1-isopropyl-piperidin-4-ylcarbamoyl)-1H-pyrazole-3-carbonyl]-methyl-amino}-acetic acid], the Ki came to 82 nM.
Consider `CC(C)N1CCC(NC(=O)c2cc(C(=O)N3CCSCC3)nn2Cc2cc(-c3ccc(Cl)s3)on2)CC1` [Example 34, 2-[5-(5-Chloro-thiophen-2-yl)-isoxazol-3-ylmethyl]-5-(thiomorpholine-4-carbonyl)-2H-pyrazole-3-carboxylic acid (1-isopropyl-piperidin-4-yl)-amide], for which the Ki turned out to be 108 nM.
The value for `CC(C)N1CCC(NC(=O)c2cc(C(=O)N3CCC(O)CC3)nn2Cc2cc(-c3ccc(Cl)s3)on2)CC1` [Example 35, 2-[5-(5-Chloro-thiophen-2-yl)-isoxazol-3-ylmethyl]-5-(4-hydroxy-piperidine-1-carbonyl)-2H-pyrazole-3-carboxylic acid (1-isopropyl-piperidin-4-yl)-amide] was 163 nM; that for `CC(C)N1CCC(NC(=O)c2cc(C(=O)N3CCC(O)C3)nn2Cc2cc(-c3ccc(Cl)s3)on2)CC1` (centres unmarked) [Example 36, 2-[5-(5-Chloro-thiophen-2-yl)-isoxazol-3-ylmethyl]-5-(3-hydroxy-pyrrolidine-1-carbonyl)-2H-pyrazole-3-carboxylic acid (1-isopropyl-piperidin-4-yl)-amide] was 122 nM; that for `CC(C)N1CCC(NC(=O)c2cc(C(=O)N3CCC(CO)CC3)nn2Cc2cc(-c3ccc(Cl)s3)on2)CC1` [Example 37, 2-[5-(5-Chloro-thiophen-2-yl)-isoxazol-3-ylmethyl]-5-(4-hydroxymethyl-piperidine-1-carbonyl)-2H-pyrazole-3-carboxylic acid (1-isopropyl-piperidin-4-yl)-amide] was 195 nM.
Turning to `CC(C)N1CCC(NC(=O)c2cc(C(=O)N3CCC4(CCCC4)CC3)nn2Cc2cc(-c3ccc(Cl)s3)on2)CC1` [Example 38, 5-(8-Aza-spiro[4.5]decane-8-carbonyl)-2-[5-(5-chloro-thiophen-2-yl)-isoxazol-3-ylmethyl]-2H-pyrazole-3-carboxylic acid (1-isopropyl-piperidin-4-yl)-amide], the Ki was 932 nM.
Consider `CC(C)N1CCC(NC(=O)c2cc(C(=O)N3CCC(S(C)(=O)=O)C3)nn2Cc2cc(-c3ccc(Cl)s3)on2)CC1` (centres unmarked) [Example 39, 2-[5-(5-Chloro-thiophen-2-yl)-isoxazol-3-ylmethyl]-5-(3-methanesulfonyl-pyrrolidine-1-carbonyl)-2H-pyrazole-3-carboxylic acid (1-isopropyl-piperidin-4-yl)-amide], for which the Ki turned out to be 145 nM.
The result for `CC(C)N1CCC(NC(=O)c2cc(C(=O)N(C)C3CCS(=O)(=O)C3)nn2Cc2cc(-c3ccc(Cl)s3)on2)CC1` (centres unmarked) [Example 40, 1-[5-(5-Chloro-thiophen-2-yl)-isoxazol-3-ylmethyl]-1H-pyrazole-3,5-dicarboxylic acid 3-[(1,1-dioxo-tetrahydro-1-thiophen-3-yl)-methyl-amide] 5-[(1-isopropyl-piperidin-4-yl)-amide]] reads 123 nM; that for `CC(C)N1CCC(NC(=O)c2cc(C(=O)N3CCNC(=O)C3)nn2Cc2cc(-c3ccc(Cl)s3)on2)CC1` [Example 41, 2-[5-(5-Chloro-thiophen-2-yl)-isoxazol-3-ylmethyl]-5-(3-oxo-piperazine-1-carbonyl)-2H-pyrazole-3-carboxylic acid (1-isopropyl-piperidin-4-yl)-amide], 81 nM; that for `CC(C)N1CCC(NC(=O)c2cc(C(=O)N3CCCOCC3)nn2Cc2cc(-c3ccc(Cl)s3)on2)CC1` [Example 42, 2-[5-(5-Chloro-thiophen-2-yl)-isoxazol-3-ylmethyl]-5-([1,4]oxazepane-4-carbonyl)-2H-pyrazole-3-carboxylic acid (1-isopropyl-piperidin-4-yl)-amide], 84 nM.
The result for `CC(C)N1CCC(NC(=O)c2cc(C(=O)N3CCCC3C(F)(F)F)nn2Cc2cc(-c3ccc(Cl)s3)on2)CC1` (centres unmarked) [Example 43, 2-[5-(5-Chloro-thiophen-2-yl)-isoxazol-3-ylmethyl]-5-(2-trifluoromethyl-pyrrolidine-1-carbonyl)-2H-pyrazole-3-carboxylic acid (1-isopropyl-piperidin-4-yl)-amide] reads 72 nM; that for `CC(C)N1CCC(NC(=O)c2cc(C(=O)NCCS(N)(=O)=O)nn2Cc2cc(-c3ccc(Cl)s3)on2)CC1` [Example 44, 1-[5-(5-Chloro-thiophen-2-yl)-isoxazol-3-ylmethyl]-1H-pyrazole-3,5-dicarboxylic acid 5-[(1-isopropyl-piperidin-4-yl)-amide] 3-[(2-sulfamoyl-ethyl)-amide]], 46 nM.
The result for `CC(C)N1CCC(NC(=O)c2cc(C(=O)NC3CC3)nn2Cc2cc(-c3ccc(Cl)s3)on2)CC1` [Example 45, 1-[5-(5-Chloro-thiophen-2-yl)-isoxazol-3-ylmethyl]-1H-pyrazole-3,5-dicarboxylic acid 3-cyclopropylamide 5-[(1-isopropyl-piperidin-4-yl)-amide]] reads 61 nM.
